The nature of assay [1]: Cytostatic activity (test not described further). The note with it: result in words, no test conditions given.
Assay [2] has as its system Tumorart P 388 (Leukämie). As to the kind of experiment: P 388 leukemia survival test in mice (NCI protocol 1200), T/C. The assay is classed as in vivo, Mäusen. The settings on record: nine doses, P 388 set i.p. with 10^6 cells/mouse, survival vs untreated controls. As to the method: Die T/C-Werte dieser Verbindung bei ihrer Austestung am TumorP 388 (Leukämie) unter Standardprüfbedingungen betragen 166 % (100 mg/kg) bzw. 165 % (50 mg/kg).
Die nachfolgenden Versuche wurden durchgeführt nach Testvorschriften des National Cancer Intitute Bethesda; Maryland 200014, veröffentlicht in "Cancer Chemotherapy Reports" Part 3, September 1972, Vol. 3, Nr. 2. Als Wirksubstanz wurde das Di-(2-hydroxy-3-brompropan)-glucamin des Beispiels 1 verwendet. Die Substanz wurde als wäßrige 1-%ige Injektionslösung unmittelbar vor der Applikation frisch hergestellt.
Bei Mäusen wurde gemäß Protokoll 1200 (Seite 91.c.) die Tumorart P 388 (Leukämie) i.p. mit 10^6 Zellen/Maus gesetzt. Die mittlere Überlebensdauer der nicht mit dem erfindungsgemäßen Wirkstoff behandelten Tiere wurde bestimmt.
Einer weiteren Gruppe von Versuchstieren wird der Wirkstoff appliziert. Der Wirkstoff wird dabei in neun Gaben in unterschiedlichen Versuchsreihen einmal zu je 100 mg/kg und in einer weiteren Versuchsreihe zu je 50 mg/kg verabreicht. In allen Fällen wird eine signifikante Verlängerungs der Lebensdauer der behandelten Testtiere gegenüber der Kontrollgruppe der nicht behandelten Tiere erzielt.

Take `CN(CC(O)CBr)C[C@H](O)[C@@H](O)[C@H](O)[C@H](O)CO` (some centres unmarked) [N-Methyl-N-(2-hydroxy-3-brom-propyl)-glucamin]: the “cytostatische Wirksamkeit” value in assay [1] is listed as “unwirksam”. Still for that read-out and setting: for `CN(CC(O)CCl)C[C@H](O)[C@@H](O)[C@H](O)[C@H](O)CO` (some centres unmarked) [entsprechende 3-Chlorverbindung] the value was “unwirksam”. Consider “Di-(2-hydroxy-3-brompropan)-glucamin [Beispiel 1]”, for which the “cytostatische Wirksamkeit” value in assay [1] is recorded as “cytostatisch aktiv”. Also, the “Verlängerungsrate T/C” value came to 165% in assay [2] (50 mg/kg per dose) and 166% in assay [2] (100 mg/kg per dose).

The record behind these values is EP0035728A1, “Cytostatically active amino-polyols, medicaments containing these compounds and their use” (Henkel Kommanditgesellschaft auf Aktien, priority 1980, dated 1981).
